# Measurements from PubChem BioAssay (NCI).
#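 Method: 48-hour compound exposure of cells in 96-well plates, five concentrations, linear interpolation of endpoints. GI50: concentration for 50% inhibition of growth. TGI marks complete inhibition of growth.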
# Columns and labels:
# Experiment in all cases: DTP human tumour cell line panel, 48 h
# OVCAR-3 ovarian = tested on: OVCAR-3 ovarian
# UACC-257 melanoma = tested on: UACC-257 melanoma
# SK-MEL-2 melanoma = tested on: SK-MEL-2 melanoma
# DU-145 prostate = tested on: DU-145 prostate
# HCC-2998 colon = tested on: HCC-2998 colon
# MDA-MB-231 breast = tested on: MDA-MB-231 breast
# A549 NSCLC = tested on: A549 NSCLC
# MDA-MB-468 breast = tested on: MDA-MB-468 breast
# A498 renal = tested on: A498 renal
# HT29 colon = tested on: HT29 colon
# PC-3 prostate = tested on: PC-3 prostate
# K-562 leukemia = tested on: K-562 leukemia
# HOP-62 NSCLC = tested on: HOP-62 NSCLC
# COLO 205 colon = tested on: COLO 205 colon
# RXF 393 renal = tested on: RXF 393 renal
# OVCAR-5 ovarian = tested on: OVCAR-5 ovarian
# CCRF-CEM leukemia = tested on: CCRF-CEM leukemia
# SK-MEL-5 melanoma = tested on: SK-MEL-5 melanoma
# MDA-MB-435 = tested on: MDA-MB-435
# RPMI-8226 leukemia = tested on: RPMI-8226 leukemia
# LOX IMVI melanoma = tested on: LOX IMVI melanoma
# SNB-19 CNS = tested on: SNB-19 CNS
# UACC-62 melanoma = tested on: UACC-62 melanoma
# NCI-H23 lung = tested on: NCI-H23 lung
# HL-60(TB) leukemia = tested on: HL-60(TB) leukemia
# OVCAR-4 ovarian = tested on: OVCAR-4 ovarian
# SF-539 CNS = tested on: SF-539 CNS
# HCT-15 colon = tested on: HCT-15 colon
# SK-OV-3 ovarian = tested on: SK-OV-3 ovarian
# HOP-92 NSCLC = tested on: HOP-92 NSCLC
# SNB-75 CNS = tested on: SNB-75 CNS
# SR leukemia = tested on: SR leukemia
# TK-10 renal = tested on: TK-10 renal
# MOLT-4 leukemia = tested on: MOLT-4 leukemia
# U251 CNS = tested on: U251 CNS
# SK-MEL-28 melanoma = tested on: SK-MEL-28 melanoma
# HCT-116 colon = tested on: HCT-116 colon
# ACHN renal = tested on: ACHN renal
# M14 melanoma = tested on: M14 melanoma
# EKVX NSCLC = tested on: EKVX NSCLC
# 786-0 renal = tested on: 786-0 renal
# SN12C renal = tested on: SN12C renal
# HS 578T breast = tested on: HS 578T breast
# NCI-H226 lung = tested on: NCI-H226 lung
# UO-31 renal = tested on: UO-31 renal
# NCI-H460 lung = tested on: NCI-H460 lung
# KM12 colon = tested on: KM12 colon
# NCI/ADR-RES ovarian = tested on: NCI/ADR-RES ovarian
# MCF7 breast = tested on: MCF7 breast
# OVCAR-8 ovarian = tested on: OVCAR-8 ovarian
# T-47D breast = tested on: T-47D breast
# IGROV1 ovarian = tested on: IGROV1 ovarian
# NCI-H522 lung = tested on: NCI-H522 lung
# CAKI-1 renal = tested on: CAKI-1 renal
# MALME-3M melanoma = tested on: MALME-3M melanoma
# SF-268 CNS = tested on: SF-268 CNS
# SF-295 CNS = tested on: SF-295 CNS
# BT-549 breast = tested on: BT-549 breast
# SW-620 colon = tested on: SW-620 colon
smiles,measurement,setting,value
Cc1cc2nc3c4ccccc4n(CCNCCN(C)C)c3nc2cc1C,GI50,OVCAR-3 ovarian,7.35 µM
same,TGI,OVCAR-3 ovarian,20.5 µM
same,GI50,UACC-257 melanoma,1.98 µM
same,TGI,UACC-257 melanoma,5.35 µM
same,GI50,SK-MEL-2 melanoma,12.6 µM
same,TGI,SK-MEL-2 melanoma,27.6 µM
same,GI50,DU-145 prostate,5.69 µM
same,TGI,DU-145 prostate,18.1 µM
same,GI50,HCC-2998 colon,5.47 µM
same,TGI,HCC-2998 colon,19.5 µM
same,GI50,MDA-MB-231 breast,6.88 µM
same,TGI,MDA-MB-231 breast,21.1 µM
same,GI50,A549 NSCLC,4.67 µM
same,TGI,A549 NSCLC,19.5 µM
same,GI50,MDA-MB-468 breast,7.78 µM
same,TGI,MDA-MB-468 breast,21.3 µM
same,GI50,A498 renal,14.5 µM
same,TGI,A498 renal,29.2 µM
same,GI50,HT29 colon,3.84 µM
same,TGI,HT29 colon,15.5 µM
same,GI50,PC-3 prostate,5.23 µM
same,TGI,PC-3 prostate,23.2 µM
same,GI50,K-562 leukemia,3.35 µM
same,TGI,K-562 leukemia,13.7 µM
same,GI50,HOP-62 NSCLC,4.98 µM
same,TGI,HOP-62 NSCLC,19.8 µM
same,GI50,COLO 205 colon,3.98 µM
same,TGI,COLO 205 colon,17.3 µM
same,GI50,RXF 393 renal,5.17 µM
same,TGI,RXF 393 renal,18.2 µM
same,GI50,OVCAR-5 ovarian,6.68 µM
same,TGI,OVCAR-5 ovarian,19.5 µM
same,GI50,CCRF-CEM leukemia,11.5 µM
same,TGI,CCRF-CEM leukemia,31.7 µM
same,GI50,SK-MEL-5 melanoma,12.6 µM
same,TGI,SK-MEL-5 melanoma,25.6 µM
same,GI50,MDA-MB-435,5.23 µM
same,TGI,MDA-MB-435,17.8 µM
same,GI50,RPMI-8226 leukemia,3.36 µM
same,TGI,RPMI-8226 leukemia,18.3 µM
same,GI50,LOX IMVI melanoma,3.07 µM
same,TGI,LOX IMVI melanoma,15.3 µM
same,GI50,SNB-19 CNS,7.26 µM
same,TGI,SNB-19 CNS,20 µM
same,GI50,UACC-62 melanoma,6.63 µM
same,TGI,UACC-62 melanoma,19.8 µM
same,GI50,NCI-H23 lung,11.5 µM
same,TGI,NCI-H23 lung,26.6 µM
same,GI50,HL-60(TB) leukemia,5.51 µM
same,TGI,HL-60(TB) leukemia,20.3 µM
same,GI50,OVCAR-4 ovarian,4.89 µM
same,TGI,OVCAR-4 ovarian,19.1 µM
same,GI50,SF-539 CNS,4.96 µM
same,TGI,SF-539 CNS,17.4 µM
same,GI50,HCT-15 colon,5.23 µM
same,TGI,HCT-15 colon,18.3 µM
same,GI50,SK-OV-3 ovarian,11.7 µM
same,TGI,SK-OV-3 ovarian,29.4 µM
same,GI50,HOP-92 NSCLC,3.45 µM
same,TGI,HOP-92 NSCLC,22.5 µM
same,GI50,SNB-75 CNS,3.33 µM
same,TGI,SNB-75 CNS,20.3 µM
same,GI50,SR leukemia,2.01 µM
same,TGI,SR leukemia,5.92 µM
same,GI50,TK-10 renal,8.06 µM
same,TGI,TK-10 renal,20.8 µM
same,GI50,MOLT-4 leukemia,4.09 µM
same,TGI,MOLT-4 leukemia,15.6 µM
same,GI50,U251 CNS,6.09 µM
same,TGI,U251 CNS,19.7 µM
same,GI50,SK-MEL-28 melanoma,7.61 µM
same,TGI,SK-MEL-28 melanoma,20.1 µM
same,GI50,HCT-116 colon,5.35 µM
same,TGI,HCT-116 colon,18.8 µM
same,GI50,ACHN renal,4.31 µM
same,TGI,ACHN renal,17 µM
same,GI50,M14 melanoma,7.43 µM
same,TGI,M14 melanoma,23.3 µM
same,GI50,EKVX NSCLC,11.1 µM
same,TGI,EKVX NSCLC,24.2 µM
same,GI50,786-0 renal,8.4 µM
same,TGI,786-0 renal,22.2 µM
same,GI50,SN12C renal,4.63 µM
same,TGI,SN12C renal,18.5 µM
same,GI50,HS 578T breast,9.6 µM
same,TGI,HS 578T breast,30.7 µM
same,GI50,NCI-H226 lung,6.13 µM
same,TGI,NCI-H226 lung,26.5 µM
same,GI50,UO-31 renal,1.49 µM
same,TGI,UO-31 renal,14.6 µM
same,GI50,NCI-H460 lung,3.61 µM
same,TGI,NCI-H460 lung,13.6 µM
same,GI50,KM12 colon,13.2 µM
same,TGI,KM12 colon,26.9 µM
same,GI50,NCI/ADR-RES ovarian,8.46 µM
same,TGI,NCI/ADR-RES ovarian,29 µM
same,GI50,MCF7 breast,3.27 µM
same,TGI,MCF7 breast,14.6 µM
same,GI50,OVCAR-8 ovarian,4.66 µM
same,TGI,OVCAR-8 ovarian,20.3 µM
same,GI50,T-47D breast,12.2 µM
same,TGI,T-47D breast,31.2 µM
same,GI50,IGROV1 ovarian,4.81 µM
same,TGI,IGROV1 ovarian,18.5 µM
same,GI50,NCI-H522 lung,8.38 µM
same,TGI,NCI-H522 lung,23.5 µM
same,GI50,CAKI-1 renal,10.8 µM
same,TGI,CAKI-1 renal,22.7 µM
same,GI50,MALME-3M melanoma,9.35 µM
same,TGI,MALME-3M melanoma,23.2 µM
same,GI50,SF-268 CNS,9.33 µM
same,TGI,SF-268 CNS,23.9 µM
same,GI50,SF-295 CNS,6.48 µM
same,TGI,SF-295 CNS,19.6 µM
same,GI50,BT-549 breast,14.1 µM
same,TGI,BT-549 breast,28 µM
same,GI50,SW-620 colon,3.87 µM
same,TGI,SW-620 colon,16.2 µM
